Data from PubChem BioAssay AID2060894 (Molecular Pharmacology Branch, DTP, NCI, 2025).
Each block holds one compound with its values, some of them ahead of it.

System: K12877-001-R-J1-PDC complex spheroid viability
Test: Anticancer human tumor K12877-001-R-J1-PDC patient-derived lung adenocarcinoma cell line growth inhibition [RAS]
Settings: for IC50: curve of first compound; for viability, T/C: stronger effect = lower value
Method in brief: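 Tumour cells grown as complex spheroids with HUVEC endothelial cells and mesenchymal stem cells, treated with RAS pathway inhibitor combinations. Each agent spans half-log steps from near clinical Cmax, or 10 microM where Cmax is unknown.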
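Note: spheroids exposed to agents for one week before readout.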
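Throughout, for viability, T/C: tumour cells co-cultured with HUVEC and mesenchymal stem cells in spheroids.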

- IC50 (second compound 0.000949 µM): 0.00424 µM
- IC50 (second compound 0.003 µM): 0.00318 µM
- IC50 (second compound 0.00949 µM): 0.00299 µM
- IC50 (second compound 0.03 µM): 0.00298 µM
- IC50 (second compound 0.0949 µM): 0.0027 µM
- IC50 (second compound 0.3 µM): 0.00163 µM
SMILES: CCc1c2c(nc3ccc(O)cc13)-c1cc3c(c(=O)n1C2)COC(=O)[C@]3(O)CC + CCn1c(-c2cccnc2C(C)OC)c2c3cc(ccc31)N1CCOC(CC(NC(=O)C(C(C)C)N(C)C(=O)C3(F)CCN(C(=O)C#CC(C)(C)N(C)C)CC3)C(=O)N3CCCC(N3)C(=O)OCC(C)(C)C2)C1
- viability, T/C (second compound 0.000949 µM, first compound 0.000949 µM): 89.5%
- viability, T/C (second compound 0.000949 µM, first compound 0.003 µM): 68.3%
- viability, T/C (second compound 0.000949 µM, first compound 0.00949 µM): 7.36%
- viability, T/C (second compound 0.000949 µM, first compound 0.03 µM): 4.07%
- viability, T/C (second compound 0.000949 µM, first compound 0.0949 µM): 2.52%
- viability, T/C (second compound 0.000949 µM, first compound 0.3 µM): 1.41%
- viability, T/C (second compound 0.003 µM, first compound 0.000949 µM): 62.1%
- viability, T/C (second compound 0.003 µM, first compound 0.003 µM): 52.2%
- viability, T/C (second compound 0.003 µM, first compound 0.00949 µM): 8.47%
- viability, T/C (second compound 0.003 µM, first compound 0.03 µM): 3.87%
- viability, T/C (second compound 0.003 µM, first compound 0.0949 µM): 2.21%
- viability, T/C (second compound 0.003 µM, first compound 0.3 µM): 1.33%
- viability, T/C (second compound 0.00949 µM, first compound 0.000949 µM): 78.3%
- viability, T/C (second compound 0.00949 µM, first compound 0.003 µM): 49.9%
- viability, T/C (second compound 0.00949 µM, first compound 0.00949 µM): 7.64%
- viability, T/C (second compound 0.00949 µM, first compound 0.03 µM): 4.13%
- viability, T/C (second compound 0.00949 µM, first compound 0.0949 µM): 2.66%
- viability, T/C (second compound 0.00949 µM, first compound 0.3 µM): 1.35%
- viability, T/C (second compound 0.03 µM, first compound 0.000949 µM): 78.1%
- viability, T/C (second compound 0.03 µM, first compound 0.003 µM): 49.9%
- viability, T/C (second compound 0.03 µM, first compound 0.00949 µM): 7.8%
- viability, T/C (second compound 0.03 µM, first compound 0.03 µM): 3.09%
- viability, T/C (second compound 0.03 µM, first compound 0.0949 µM): 2.15%
- viability, T/C (second compound 0.03 µM, first compound 0.3 µM): 1.08%
- viability, T/C (second compound 0.0949 µM, first compound 0.000949 µM): 75.5%
- viability, T/C (second compound 0.0949 µM, first compound 0.003 µM): 47.4%
- viability, T/C (second compound 0.0949 µM, first compound 0.00949 µM): 6.39%
- viability, T/C (second compound 0.0949 µM, first compound 0.03 µM): 4.02%
- viability, T/C (second compound 0.0949 µM, first compound 0.0949 µM): 2.14%
- viability, T/C (second compound 0.0949 µM, first compound 0.3 µM): 1.27%
- viability, T/C (second compound 0.3 µM, first compound 0.000949 µM): 62.8%
- viability, T/C (second compound 0.3 µM, first compound 0.003 µM): 35.8%
- viability, T/C (second compound 0.3 µM, first compound 0.00949 µM): 5.11%
- viability, T/C (second compound 0.3 µM, first compound 0.03 µM): 3.66%
- viability, T/C (second compound 0.3 µM, first compound 0.0949 µM): 1.47%
- viability, T/C (second compound 0.3 µM, first compound 0.3 µM): 1.32%

- IC50 (second compound 0.000949 µM): > 10 µM
- IC50 (second compound 0.003 µM): > 10 µM
- IC50 (second compound 0.00949 µM): > 10 µM
- IC50 (second compound 0.03 µM): > 10 µM
- IC50 (second compound 0.0949 µM): > 10 µM
- IC50 (second compound 0.3 µM): > 10 µM
SMILES: C[C@@H](NC(=O)c1ncnc(N)c1Cl)c1ncc(C(=O)Nc2cc(C(F)(F)F)c(Cl)cn2)s1 + CCn1c(-c2cccnc2C(C)OC)c2c3cc(ccc31)N1CCOC(CC(NC(=O)C(C(C)C)N(C)C(=O)C3(F)CCN(C(=O)C#CC(C)(C)N(C)C)CC3)C(=O)N3CCCC(N3)C(=O)OCC(C)(C)C2)C1
- viability, T/C (second compound 0.000949 µM, first compound 0.0316 µM): 84.5%
- viability, T/C (second compound 0.000949 µM, first compound 0.1 µM): 84.7%
- viability, T/C (second compound 0.000949 µM, first compound 0.316 µM): 77.3%
- viability, T/C (second compound 0.000949 µM, first compound 1 µM): 85.3%
- viability, T/C (second compound 0.000949 µM, first compound 3.16 µM): 74.4%
- viability, T/C (second compound 0.000949 µM, first compound 10 µM): 82.7%
- viability, T/C (second compound 0.003 µM, first compound 0.0316 µM): 80.2%
- viability, T/C (second compound 0.003 µM, first compound 0.1 µM): 79.2%
- viability, T/C (second compound 0.003 µM, first compound 0.316 µM): 72.6%
- viability, T/C (second compound 0.003 µM, first compound 1 µM): 82%
- viability, T/C (second compound 0.003 µM, first compound 3.16 µM): 91.2%
- viability, T/C (second compound 0.003 µM, first compound 10 µM): 76.8%
- viability, T/C (second compound 0.00949 µM, first compound 0.0316 µM): 84.3%
- viability, T/C (second compound 0.00949 µM, first compound 0.1 µM): 74.9%
- viability, T/C (second compound 0.00949 µM, first compound 0.316 µM): 72%
- viability, T/C (second compound 0.00949 µM, first compound 1 µM): 73.4%
- viability, T/C (second compound 0.00949 µM, first compound 3.16 µM): 81.3%
- viability, T/C (second compound 0.00949 µM, first compound 10 µM): 78.8%
- viability, T/C (second compound 0.03 µM, first compound 0.0316 µM): 80.3%
- viability, T/C (second compound 0.03 µM, first compound 0.1 µM): 81.1%
- viability, T/C (second compound 0.03 µM, first compound 0.316 µM): 71.3%
- viability, T/C (second compound 0.03 µM, first compound 1 µM): 88.2%
- viability, T/C (second compound 0.03 µM, first compound 3.16 µM): 89.9%
- viability, T/C (second compound 0.03 µM, first compound 10 µM): 87.5%
- viability, T/C (second compound 0.0949 µM, first compound 0.0316 µM): 79.5%
- viability, T/C (second compound 0.0949 µM, first compound 0.1 µM): 77.8%
- viability, T/C (second compound 0.0949 µM, first compound 0.316 µM): 78.4%
- viability, T/C (second compound 0.0949 µM, first compound 1 µM): 75.3%
- viability, T/C (second compound 0.0949 µM, first compound 3.16 µM): 89.7%
- viability, T/C (second compound 0.0949 µM, first compound 10 µM): 72%
- viability, T/C (second compound 0.3 µM, first compound 0.0316 µM): 72%
- viability, T/C (second compound 0.3 µM, first compound 0.1 µM): 71.7%
- viability, T/C (second compound 0.3 µM, first compound 0.316 µM): 64.3%
- viability, T/C (second compound 0.3 µM, first compound 1 µM): 69.8%
- viability, T/C (second compound 0.3 µM, first compound 3.16 µM): 69.3%
- viability, T/C (second compound 0.3 µM, first compound 10 µM): 52.9%

- IC50 (second compound 0.00316 µM): > 10 µM
- IC50 (second compound 0.01 µM): 8.9 µM
- IC50 (second compound 0.0316 µM): 6.88 µM
- IC50 (second compound 0.1 µM): 5.24 µM
- IC50 (second compound 0.316 µM): 5.89 µM
- IC50 (second compound 1 µM): 9.97 µM
SMILES: NC1c2ccccc2OC12CCN(c1cnc3c(N4CCCc5ncccc54)n[nH]c3n1)CC2 (stereo unspecified) + C=CC(=O)N1CCN(c2nc(OCC3CCCN3C)nc3c(F)c(-c4nc(N)cc(C)c4C(F)(F)F)c(Cl)cc23)C(C)C1
- viability, T/C (second compound 0.00316 µM, first compound 0.0316 µM): 82.2%
- viability, T/C (second compound 0.00316 µM, first compound 0.1 µM): 89.4%
- viability, T/C (second compound 0.00316 µM, first compound 0.316 µM): 83.9%
- viability, T/C (second compound 0.00316 µM, first compound 1 µM): 84.5%
- viability, T/C (second compound 0.00316 µM, first compound 3.16 µM): 63.4%
- viability, T/C (second compound 0.00316 µM, first compound 10 µM): 52.7%
- viability, T/C (second compound 0.01 µM, first compound 0.0316 µM): 82.7%
- viability, T/C (second compound 0.01 µM, first compound 0.1 µM): 92.4%
- viability, T/C (second compound 0.01 µM, first compound 0.316 µM): 84.6%
- viability, T/C (second compound 0.01 µM, first compound 1 µM): 78.1%
- viability, T/C (second compound 0.01 µM, first compound 3.16 µM): 65.5%
- viability, T/C (second compound 0.01 µM, first compound 10 µM): 48.2%
- viability, T/C (second compound 0.0316 µM, first compound 0.0316 µM): 89.8%
- viability, T/C (second compound 0.0316 µM, first compound 0.1 µM): 79.6%
- viability, T/C (second compound 0.0316 µM, first compound 0.316 µM): 75.4%
- viability, T/C (second compound 0.0316 µM, first compound 1 µM): 69.3%
- viability, T/C (second compound 0.0316 µM, first compound 3.16 µM): 57.5%
- viability, T/C (second compound 0.0316 µM, first compound 10 µM): 45.9%
- viability, T/C (second compound 0.1 µM, first compound 0.0316 µM): 97.3%
- viability, T/C (second compound 0.1 µM, first compound 0.1 µM): 79.3%
- viability, T/C (second compound 0.1 µM, first compound 0.316 µM): 67.4%
- viability, T/C (second compound 0.1 µM, first compound 1 µM): 64.5%
- viability, T/C (second compound 0.1 µM, first compound 3.16 µM): 54.7%
- viability, T/C (second compound 0.1 µM, first compound 10 µM): 44.4%
- viability, T/C (second compound 0.316 µM, first compound 0.0316 µM): 81.5%
- viability, T/C (second compound 0.316 µM, first compound 0.1 µM): 73.5%
- viability, T/C (second compound 0.316 µM, first compound 0.316 µM): 70.3%
- viability, T/C (second compound 0.316 µM, first compound 1 µM): 63.4%
- viability, T/C (second compound 0.316 µM, first compound 3.16 µM): 48.9%
- viability, T/C (second compound 0.316 µM, first compound 10 µM): 48.9%
- viability, T/C (second compound 1 µM, first compound 0.0316 µM): 81.9%
- viability, T/C (second compound 1 µM, first compound 0.1 µM): 95.9%
- viability, T/C (second compound 1 µM, first compound 0.316 µM): 66.7%
- viability, T/C (second compound 1 µM, first compound 1 µM): 76.7%
- viability, T/C (second compound 1 µM, first compound 3.16 µM): 55.5%
- viability, T/C (second compound 1 µM, first compound 10 µM): 50.7%
